Experimental data as given in PubChem BioAssay (NCI).
Several values for one entry are separate records, joined by “and”; a condition that tells them apart may be missing. Equal values may be shown once.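 1) Cells in 96-well plates. 2) Compound, 48 h, 5 concentrations. 3) Linear interpolation between surrounding doses. 4) Unreached endpoint = highest concentration. At the GI50, growth is halved. At the TGI there is no net growth.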

Tested on: MDA-MB-468 breast
Assay: DTP human tumour cell line panel, 48 h

Q: What does the source list for `O=Nc1c(O)ccc2ccccc12`?
A: GI50: 4.51 µM; TGI: 25.3 µM

Q: Which results are given for `COc1ccc(NC(=O)c2cc(OC)c(OC)c(OC)c2)cc1O`?
A: GI50: 0.861 µM; TGI: 15.8 µM

Q: What does the source list for `COc1ccc2c3c(c(OCCCN(C)C)nc2c1)-c1ccc(Cl)cc1C3=O`?
A: GI50: 4.7 µM; TGI: 19.5 µM

Q: Which GI50 does the source give for `CN(C)c1ccc(/C=C/c2ccnc3ccccc23)cc1` here?
A: 0.298 µM

Q: And the TGI?
A: 16.9 µM

Q: How did the GI50 turn out when `C=C1C(C)C2C(Cc3ccccc3)NC(=O)C23C(OC(C)=O)/C=C/C(C)(O)CC(C)C/C=C/C3C1O` (configuration not stated) was run?
A: 0.199 µM

Q: And the TGI?
A: > 100 µM

Q: How did the GI50 turn out when `c1ccc(-c2nc(N3CCNCC3)c3nc(-c4ccccc4)oc3n2)cc1` was run?
A: 1.93 µM

Q: What about the TGI of the same compound?
A: 3.66 µM

Q: How did the GI50 turn out when `NC(CSC(c1ccccc1)(c1ccccc1)c1ccc2ccccc2c1)C(=O)O` (configuration not stated) was run?
A: 0.045 µM

Q: And the TGI?
A: 22.3 µM

Q: Which results are given for `COc1ccc(/C=C2\N=C3SC=C(N)N3C2=O)cc1`?
A: GI50: 0.291 µM; TGI: 1.66 µM

Q: Which GI50 does the source give for `O=C(/C=C/c1ccco1)Nc1ncc(Cc2ccc(F)cc2)s1` here?
A: 0.142 µM

Q: And the TGI?
A: > 25.2 µM

Q: Which GI50 does the source give for `CN(Cc1cnc2nc(N)nc(N)c2n1)c1ccc(C(=O)NC(CCC(=O)O)C(=O)O)cc1` (configuration not stated) here?
A: 0.112 µM

Q: What about the TGI of the same compound?
A: > 100 µM

Q: Which GI50 does the source give for `CC[C@H](C)[C@H](NC(=O)C12C3C4C1C1C2C3C41NC(C)=O)C(=O)N(C)[C@H](C[C@@H](OC(C)=O)c1nc(C(=O)N[C@@H](Cc2ccccc2)C[C@H](C)C(=O)OC)cs1)C(C)C` (some centres not stated) here?
A: 0.081 µM

Q: What about the TGI of the same compound?
A: > 3.98 µM

Q: How did the GI50 turn out when `CC/C=C\CCC/C=C1/C(=O)C=C[C@@H]1C/C=C\CCCC(=O)O` was run?
A: 4.61 µM

Q: What about the TGI of the same compound?
A: 18.7 µM

Q: `Cn1c(=O)c2[nH]c(COc3ccc(C(C)(C)C)cc3)nc2n(C)c1=O` was tested. Which GI50 did it give?
A: 8.08 µM

Q: And the TGI?
A: 72.3 µM

Q: With `COc1cc(C2C(C#N)=C(N)OC3=C2C(=O)c2ccccc2C3=O)cc(OC)c1OC` (configuration not stated) as the compound, how does the GI50 read?
A: 2.26 µM

Q: And the TGI?
A: 6.64 µM

Q: How did the GI50 turn out when `CCSC1=CC(=O)c2ccccc2C1=O` was run?
A: 0.18 µM

Q: What about the TGI of the same compound?
A: 0.417 µM

Q: For `Cc1nc(NC(=O)N2CCC[C@H]2C(N)=O)sc1-c1ccnc(C(C)(C)C(F)(F)F)c1`, which GI50 is on record?
A: 0.309 µM and 0.596 µM

Q: And the TGI?
A: 6.97 µM and > 10 µM

Q: With `COc1ccc(-c2ccc(-c3ccc(C(=N)N)cn3)s2)cc1Cl` as the compound, how does the GI50 read?
A: 1.57 µM

Q: What about the TGI of the same compound?
A: 3.15 µM

Q: `Oc1ccccc1-n1c(-c2ccccc2)ccc1-c1ccccc1` was tested. Which GI50 did it give?
A: 3.3 µM

Q: And the TGI?
A: 15.7 µM

Q: `C[Se]C(=O)CC1=C2C=C(F)C=CC2/C(=C\c2ccc(S(C)=O)cc2)C1C` (configuration not stated) was tested. Which GI50 did it give?
A: 0.134 µM

Q: And the TGI?
A: 1.41 µM

Q: With `COc1ccc2c(c1)OC13Oc4cc(OC)ccc4C=C1CCCC3=C2` as the compound, how does the GI50 read?
A: > 100 µM

Q: And the TGI?
A: > 100 µM

Q: For `COc1ccccc1-n1c(SCc2cc(OC)c(OC)c(OC)c2)nc2ccc(Cl)cc2c1=O`, which GI50 is on record?
A: 0.895 µM

Q: What about the TGI of the same compound?
A: 8.99 µM

Q: How did the GI50 turn out when `C#Cc1nc(/C=C\CCCCCCC(=O)NO)cs1` was run?
A: 1.19 µM

Q: And the TGI?
A: 3.12 µM

Q: For `CC#CC(=O)N1CCC[C@H]1c1nc(-c2ccc(C(=O)Nc3ccccn3)cc2)c2c(N)nccn12`, which GI50 is on record?
A: 19 µM

Q: What about the TGI of the same compound?
A: > 76 µM

Q: `C[C@@H]1CC[C@@]2(OC1)O[C@H]1C[C@H]3[C@@H]4CC=C5C[C@@H](O[C@@H]6O[C@H](CO)[C@@H](O[C@@H]7O[C@@H](CO)[C@H](O)[C@H]7O)[C@H](O)[C@H]6O[C@@H]6O[C@@H](C)[C@H](O)[C@@H](O)[C@H]6O)CC[C@]5(C)[C@H]4CC[C@]3(C)[C@H]1[C@@H]2C` was tested. Which GI50 did it give?
A: 0.361 µM

Q: What about the TGI of the same compound?
A: 1.45 µM

Q: With `CC(=O)N1CC(F)(F)c2c(Sc3ncc(N4CCC5(CC4)COC[C@H]5N)nc3N)cccc21` as the compound, how does the GI50 read?
A: 14.8 µM

Q: What about the TGI of the same compound?
A: 50.5 µM

Q: `O=C1/C(=C/c2cccs2)CCC/C1=C\c1cccs1` was tested. Which GI50 did it give?
A: 0.577 µM

Q: What about the TGI of the same compound?
A: 14.9 µM

Q: How did the GI50 turn out when `COc1ccc(/C=C\c2cc(OC)c(OC)c(OC)c2)c(NS(=O)(=O)c2ccc(C)cc2)c1O` was run?
A: 0.0261 µM

Q: And the TGI?
A: 0.711 µM

Q: With `C#Cc1ccc(NC(=O)c2ccc(/C=C/C(=O)c3nccn3C)cc2)cc1` as the compound, how does the GI50 read?
A: 0.4 µM

Q: What about the TGI of the same compound?
A: 0.918 µM

Q: `O=c1[nH]c(-c2ccc(C(F)(F)F)cc2)nc2c1CSCC2` was tested. Which GI50 did it give?
A: 36.1 µM

Q: What about the TGI of the same compound?
A: > 100 µM

Q: For `O=C(Nc1cc(Cl)cc(Cl)c1)Nc1ccc2oc(=O)ccc2c1`, which GI50 is on record?
A: 2.81 µM

Q: And the TGI?
A: 7.45 µM

Q: For `CCNCCNc1cc(-c2ccc(F)cc2)c(C#N)c2nc3ccccc3n12`, which GI50 is on record?
A: 1.85 µM

Q: What about the TGI of the same compound?
A: 4.12 µM

Q: For `O=C(CCN1CCCC1)Nc1ccc2c(NCCCc3ccccc3)c3ccccc3nc2c1`, which GI50 is on record?
A: 0.477 µM

Q: What about the TGI of the same compound?
A: 1.7 µM

Q: Which results are given for `CCCC[C@@H](COC(=O)N(Cc1cccs1)Cc1cccs1)NC(=O)N[C@@H](CC(=O)OC)c1ccc2c(c1)OCO2`?
A: GI50: > 100 µM; TGI: > 100 µM

Q: `CC(C)(C)CC(C)(C)c1ccc(OCCOCCSC(=N)N)cc1` was tested. Which GI50 did it give?
A: 1.59 µM

Q: And the TGI?
A: 3.32 µM

Q: `Oc1c(CN2CCCC2)cc(COCc2ccccc2)c2cccnc12` was tested. Which GI50 did it give?
A: 2.3 µM

Q: What about the TGI of the same compound?
A: 6.14 µM

Q: For `Fc1ccc(-c2ncn(C3CCNCC3)c2-c2ccnc(Oc3cccc(F)c3)n2)cc1`, which GI50 is on record?
A: 2.61 µM

Q: And the TGI?
A: 6.82 µM

Q: Which GI50 does the source give for `N#Cc1nc(-c2ccccc2)oc1S(=O)(=O)N1CCOCC1` here?
A: 2.21 µM

Q: And the TGI?
A: 6.21 µM

Q: What does the source list for `CCS/C(Nc1ccccc1)=C(\C#N)C(=O)Nc1ccc(OC)cc1`?
A: GI50: 1.39 µM; TGI: 7.51 µM

Q: Which results are given for `O=C(/C=C\c1ccnc2ccccc12)c1ccc([N+](=O)[O-])cc1`?
A: GI50: 1.04 µM; TGI: 9.09 µM

Q: For `Cn1ccnc1C(=O)/C=C/c1ccc(C(=O)Nc2nc3ccccc3[nH]2)cc1`, which GI50 is on record?
A: 1.29 µM

Q: And the TGI?
A: > 25 µM

Q: With `FC(F)(F)c1ccc(-c2cnc(Br)nc2NC2CCCCCC2)cc1` as the compound, how does the GI50 read?
A: 24.9 µM

Q: What about the TGI of the same compound?
A: > 100 µM

Q: For `COc1ccc(C(O)c2cc3c(N)c(C(=O)Nc4cccc(Br)c4)sc3nc2C)cc1` (configuration not stated), which GI50 is on record?
A: 0.0969 µM

Q: With `COC(=O)CCC1=C(C)c2cc3[n-]c(cc4nc(cc5[n-]c(cc1n2)c(CCC(=O)OC)c5C)C=C4C)cc3C.[Cd+2]` as the compound, how does the GI50 read?
A: 3.29 µM

Q: And the TGI?
A: 12 µM

Q: With `COc1ccc(/C=C(\C#N)c2cc3ccccc3n2C)cc1` as the compound, how does the GI50 read?
A: 0.273 µM

Q: What about the TGI of the same compound?
A: 1.99 µM
